From the supplement of paper PMC10307832

How the values were obtained:
Assay in all cases: relative viability (nuclei count vs DMSO), 5 days (fraction); higher = more cells survive
NVP-TAE684 + Pemetrexed = compound: COc1cc(N2CCC(N3CCN(C)CC3)CC2)ccc1Nc1ncc(Cl)c(Nc2ccccc2S(=O)(=O)C(C)C)n1 [NVP-TAE684] + Nc1nc2[nH]cc(CCc3ccc(C(=O)N[C@@H](CCC(=O)O)C(=O)O)cc3)c2c(=O)[nH]1 [Pemetrexed] (partner 0.2 µM)
Procedure, shortened: (§1)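 Medians of duplicate plates are given as relative viability. That measure is the nuclei count in treated wells divided by the count in vehicle wells. Counts were taken on 4× images of lung cancer cell lines in 1536-well plates, 5 days after pin-tool dosing the day after seeding with one drug alone or a fixed anchor-drug dose plus five library-drug doses (not always all listed) in √10 steps.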

CUDC-101 + Alpelisib = compound: C#Cc1cccc(Nc2ncnc3cc(OC)c(OCCCCCCC(=O)NO)cc23)c1 [CUDC-101] + Cc1nc(NC(=O)N2CCC[C@H]2C(N)=O)sc1-c1ccnc(C(C)(C)C(F)(F)F)c1 [Alpelisib] (partner 2 µM)
Procedure, shortened: as §1

CUDC-101 + AZD7762 = compound: C#Cc1cccc(Nc2ncnc3cc(OC)c(OCCCCCCC(=O)NO)cc23)c1 [CUDC-101] + NC(=O)Nc1cc(-c2cccc(F)c2)sc1C(=O)N[C@H]1CCCNC1 [AZD7762] (partner 0.2 µM)
Procedure, shortened: as §1

NVP-TAE684 + Linsitinib = compound: COc1cc(N2CCC(N3CCN(C)CC3)CC2)ccc1Nc1ncc(Cl)c(Nc2ccccc2S(=O)(=O)C(C)C)n1 [NVP-TAE684] + C[C@]1(O)C[C@@H](c2nc(-c3ccc4ccc(-c5ccccc5)nc4c3)c3c(N)nccn32)C1 [Linsitinib] (partner 1 µM)
Procedure, shortened: as §1

NVP-TAE684 + Tozasertib = compound: COc1cc(N2CCC(N3CCN(C)CC3)CC2)ccc1Nc1ncc(Cl)c(Nc2ccccc2S(=O)(=O)C(C)C)n1 [NVP-TAE684] + Cc1cc(Nc2cc(N3CCN(C)CC3)nc(Sc3ccc(NC(=O)C4CC4)cc3)n2)n[nH]1 [Tozasertib] (partner 0.1 µM)
Procedure, shortened: as §1

Cell Line	relative viability (NVP-TAE684 + Pemetrexed; first compound 0.2 µM)	relative viability (NVP-TAE684 + Pemetrexed; first compound 0.6325 µM)	relative viability (NVP-TAE684 + Pemetrexed; first compound 2 µM)	relative viability (CUDC-101 + Alpelisib; first compound 0.01 µM)	relative viability (CUDC-101 + Alpelisib; first compound 0.03162 µM)	relative viability (CUDC-101 + Alpelisib; first compound 0.1 µM)	relative viability (CUDC-101 + Alpelisib; first compound 0.3162 µM)	relative viability (CUDC-101 + Alpelisib; first compound 1 µM)	relative viability (CUDC-101 + AZD7762; first compound 0.01 µM)	relative viability (CUDC-101 + AZD7762; first compound 0.03162 µM)	relative viability (CUDC-101 + AZD7762; first compound 0.1 µM)	relative viability (CUDC-101 + AZD7762; first compound 0.3162 µM)	relative viability (CUDC-101 + AZD7762; first compound 1 µM)	relative viability (NVP-TAE684 + Linsitinib; first compound 0.2 µM)	relative viability (NVP-TAE684 + Linsitinib; first compound 0.6325 µM)	relative viability (NVP-TAE684 + Linsitinib; first compound 2 µM)	relative viability (NVP-TAE684 + Tozasertib; first compound 0.2 µM)	relative viability (NVP-TAE684 + Tozasertib; first compound 0.6325 µM)	relative viability (NVP-TAE684 + Tozasertib; first compound 2 µM)
NCI-H1944	0.705	0.585	0.631	0.819	0.682	0.799	0.756	0.514	0.503	0.466	0.44	0.311	0.198	1.16	1.17	1.3	0.271	0.248	0.225
LC-2-ad	0.241	0.269	0.232	0.896	0.908	0.844	0.73	0.433	0.904	0.858	0.824	0.778	0.581	0.842	0.771	0.218	0.448	0.377	0.286
LOU-NH91	0.364	0.349	0.437	0.652	0.533	0.509	0.574	0.482	0.754	0.751	0.741	0.798	0.556	0.936	0.832	0.665	0.622	0.576	0.475
NCI-H647	0.18	0.148	0.106	1.48	1.14	1.33	1.18	0.794	0.555	0.376	0.567	0.403	0.176	1.49	1.09	0.522	0.0998	0.288	0.115
NCI-H1666	0.985	0.796	0.77	0.958	0.949	1.05	0.974	0.498	0.943	0.741	0.879	0.92	0.641	0.828	0.605	0.591	0.569	0.63	0.488
A-427		0.914	0.788	1.15	1.1	1.11	1.02	0.887	0.675	0.701	0.625	0.483	0.258	1.22		1.07	0.175	0.187	0.144
NCI-H1395	0.971	0.831	0.823	0.993	0.998	1.1	1.18	0.823	0.374	0.375	0.397	0.396	0.327	1.3	0.766	0.862	0.819	0.699	0.626
NCI-H650	0.901	0.939	0.757	1.19	1.06	1.29	1.17	0.885	1.25	0.835	1.03	0.968	0.848	0.982	0.638	0.652	0.669	0.69	0.498
NCI-H1437	0.354	0.327	0.243	1.04	0.886	0.988	0.983	0.679	1.1	1	1.11	1.2	1.05	1.01	1.02	0.545	0.433	0.396	0.311
HCC-366	0.197	0.178	0.227	0.555	0.197	0.437	0.547	0.337	0.254	0.174	0.285	0.289	0.211	0.605	0.621	0.455	0.108	0.124	0.0322
HCC-78	0.886	0.912	0.93	0.288	0.282	0.452	0.256	0.146	0.66	0.531	0.603	0.355	0.323	0.403	0.359	0.294	0.361	0.429	0.217
HCC-44	0.652		0.606	0.641	0.664	0.771	0.781	0.685	1.04	1.01	1.05	0.981	1.06	0.785	0.674	0.482	1	0.848	0.338
NCI-H1355	1.01	0.984	0.793	0.873	0.738	1.02	0.807	0.566	0.657	0.645	0.846	0.747	0.598	0.724	0.826	0.535	0.521	0.471	0.301
NCI-H1993	0.518	0.555	0.436	0.742	0.751	0.766	0.671	0.639	0.811	0.87	0.855	0.704	0.428		0.66	0.658	0.626	0.543	0.476
NCI-H1734	0.47	0.437	0.348	0.754	0.654	0.773	0.813	0.596	0.521	0.433	0.462	0.312	0.182	0.849	0.92	0.818	0.283	0.261	0.196
EMC-BAC-2	0.429	0.405	0.433	0.759	0.737	0.757	0.741	0.499	1.08	1.09	1.06	0.947	0.443	0.771		0.51	0.284	0.266	0.233
NCI-H1915	0.537	0.463	0.472	1.07	0.997	1.11	1.04	0.788	0.717	0.631	0.61	0.548	0.516	1.16	1.18	1.01	0.487	0.415	0.492

Cell Line	relative viability (NVP-TAE684 + Pemetrexed; first compound 0.2 µM)	relative viability (NVP-TAE684 + Pemetrexed; first compound 0.6325 µM)	relative viability (NVP-TAE684 + Pemetrexed; first compound 2 µM)	relative viability (CUDC-101 + Alpelisib; first compound 0.01 µM)	relative viability (CUDC-101 + Alpelisib; first compound 0.03162 µM)	relative viability (CUDC-101 + Alpelisib; first compound 0.1 µM)	relative viability (CUDC-101 + Alpelisib; first compound 0.3162 µM)	relative viability (CUDC-101 + Alpelisib; first compound 1 µM)	relative viability (CUDC-101 + AZD7762; first compound 0.01 µM)	relative viability (CUDC-101 + AZD7762; first compound 0.03162 µM)	relative viability (CUDC-101 + AZD7762; first compound 0.1 µM)	relative viability (CUDC-101 + AZD7762; first compound 0.3162 µM)	relative viability (CUDC-101 + AZD7762; first compound 1 µM)	relative viability (NVP-TAE684 + Linsitinib; first compound 0.2 µM)	relative viability (NVP-TAE684 + Linsitinib; first compound 0.6325 µM)	relative viability (NVP-TAE684 + Linsitinib; first compound 2 µM)	relative viability (NVP-TAE684 + Tozasertib; first compound 0.2 µM)	relative viability (NVP-TAE684 + Tozasertib; first compound 0.6325 µM)	relative viability (NVP-TAE684 + Tozasertib; first compound 2 µM)
NCI-H358	0.166	0.151	0.13	1.21	0.871	0.926	0.71	0.415	0.565	0.493	0.518	0.261	0.237	0.73	0.488	0.274	0.0952	0.0896	0.0684
CAL-12T	0.973	1.16	0.492	1.38	0.984	1.42	1.11	1.21	0.668	0.567	0.617	0.536	0.601	0.726	0.767	0.541	0.278	0.315	0.117
NCI-H2085	1.01	0.874	0.813	0.957	1.01	0.925	1.01	0.868	0.956	1.01	1.06	0.922	0.877	0.928	0.82	0.7	0.803	0.781	0.379
LCLC-97TM1	0.184	0.144	0.114	0.261	0.266	0.235	0.233	0.15	0.264	0.211	0.343	0.305	0.248	0.136	0.189	0.136	0.184	0.224	0.0618
NCI-H596	0.56	0.43	0.45	0.463	0.395	0.481	0.465	0.512	1.09	1.09	1.12	1.07	1.04	1.06		0.688	1.17	0.883	0.861
PC-14	0.145	0.134	0.124	0.983	0.894	0.62	0.673	0.287	0.428	0.339	0.214	0.185	0.124	0.934	1.1	0.851	0.627	0.531	0.461
H3255	0.531	0.519	0.449	0.71	0.552	0.177	0.375	0.136	1.01	0.721	0.546	0.556	0.259	0.903	0.927	0.69	0.639	0.717	0.409
NCI-H441	0.271	0.29	0.223	0.842	0.847	0.879	0.589	0.572	1.36	1.08	1.34	1.37	1.07	0.521	0.627	0.472	0.608	0.554	0.266
LK-2	0.271	0.229	0.175	1.08	0.959	1.09	1.05	0.647	0.508	0.422	0.336	0.263	0.0851	0.708	0.659	0.623	0.154	0.191	0.179
LU99A	0.192	0.147	0.194	0.584	0.603	0.518	0.433	0.263	0.301	0.297	0.247	0.198	0.104	0.614	0.558	0.445	0.298	0.293	0.206
NCI-H322M	0.635	0.593	0.479	0.775	0.704	0.725	0.733	0.725	0.558	0.428	0.496	0.345	0.353	0.805	0.862	0.872	0.42	0.414	0.294
NCI-H1793	0.929	0.651	0.779	0.796	0.41	0.658	0.627	0.546	0.406	0.31	0.477	0.648	0.211	0.734	0.857	0.9	0.346	0.323	0.25
HARA	0.262	0.211	0.233	0.752	0.661	0.583	0.54	0.225	0.31	0.507		0.24	0.131	0.985	0.929	0.474	0.0965	0.0875	0.0538
LXF-289	0.874	0.983	0.805	0.991	1.08	0.994	1.07	0.815	1.08	1.13	1.02	1.07	0.811	0.937	1.01	0.822	0.263	0.168	0.0842
201T	0.334	0.332	0.323	0.932	0.937	0.926	1.05	0.88	0.617	0.646	0.613	0.614	0.39	1.1		0.925	0.925	0.942	0.536
LCLC-103H	0.473	0.48	0.478	0.93	0.95	1.01	1.02	0.953	0.674	0.739	0.761	0.877	0.675	1.06	1.23	1.15	0.432	0.433	0.303
